From patent publication US20230382925A1, “MODULATORS OF CYSTIC FIBROSIS TRANSMEMBRANE CONDUCTANCE REGULATOR” (VERTEX PHARMACEUTICALS INCORPORATED, priority 2020, published 2023)
Where two headings read alike, the source gives them in different places.

Molecular target: CFTR (Homo sapiens, UniProt P13569)
Experiment: Membrane Potential Dye, Enteroid Assay B
Format: cell-based
Protocol: Base medium (ADF+++) consisted of Advanced […], 2 mM Glutamax, 10 mM HEPES, 1 μg/mL penicillin/streptomycin.
Intestinal enteroid maintenance medium (IEMMN) consisted of ADF+++, 1× B27 supplement, 1× N2 supplement, 1.25 mM N-acetyl cysteine, 10 mM Nicotinamide, 50 ng/mL hEGF, 10 nM Gastrin, 1 μg/mL hR-spondin-1, 100 ng/mL hNoggin, TGF-b type 1 inhibitor A-83-01, 100 μg/mL Primocin, 10 μM P38 MAPK inhibitor SB202190.
Bath 1 Buffer consisted of 1 mM MgCl2, 160 mM NaCl, 4.5 mM KCl, 10 mM HEPES, 10 mM Glucose, 2 mM CaCl2).
Chloride Free Buffer consisted of 1 mM Magnesium Gluconate, 2 mM Calcium Gluconate, 4.5 mM Potassium Gluconate, 160 mM Sodium Gluconate, 10 mM HEPES, 10 mM Glucose.
Bath 1 Dye Solution consisted of Bath 1 Buffer, 0.04% Pluronic F127, 20 μM Methyl Oxonol, 30 μM CaCCinh-A01, 30 μM Chicago Sky Blue.
Chloride Free Dye Solution consisted of Chloride Free Buffer, 0.04% Pluronic F127, 20 μM Methyl Oxonol, 30 μM CaCCinh-A01, 30 μM Chicago Sky Blue.
Chloride Free Dye Stimulation Solution consisted of Chloride Free Dye Solution, 10 μM forskolin, 100 μM IBMX, and 300 nM Compound III.
Human intestinal epithelial enteroid cells were obtained from the Hubrecht Institute for Developmental Biology and Stem Cell Research, Utrecht, The Netherlands and expanded in T-Flasks as previously described (Dekkers J F, Wiegerinck C L, de Jonge H R, Bronsveld I, Janssens H M, de Winter-de Groot K M, Brandsma A M, de Jong N W M, Bijvelds M J C, Scholte B J, Nieuwenhuis E E S, van den Brink S, Clevers H, van der Ent C K, Middendorp S and M Beekman J M. A functional CFTR assay using primary cystic fibrosis intestinal organoids. Nat Med. 2013 July; 19(7):939-45.).
3. Enteroid Cell Harvesting and Seeding
Cells were recovered in cell recovery solution, collected by centrifugation at 650 rpm for 5 min at 4° C., resuspended in TrypLE and incubated for 5 min at 37° C. Cells were then collected by centrifugation at 650 rpm for 5 min at 4° C. and resuspended in IEMM containing 10 μM ROCK inhibitor (RI). The cell suspension was passed through a 40 μm cell strainer and resuspended at 1×10^6 cells/mL in IEMM containing 10 μM RI. Cells were seeded at 5000 cells/well into multi-well plates and incubated for overnight at 37° C., 95% humidity and 5% CO2 prior to assay.
5. Membrane Potential Dye, Enteroid Assay B
Enteroid cells were incubated with test compound in IEMM for 18-24 hours at 37° C., 95% humidity and 5% CO2. […] Briefly, cells were washed 5 times in Bath 1 Buffer. Bath 1 Dye Solution was added and the cells were incubated for 25 min at room temperature. Following dye incubation, cells were washed 3 times in Chloride Free Dye Solution. Chloride transport was initiated by addition of Chloride Free Dye Stimulation Solution and the fluorescence signal was read for 15 min. […] Chloride transport was then expressed as a percentage of the chloride transport following treatment with 1 μM (14S)-8-[3-(2-{Dispiro[2.0.2.1]heptan-7-yl}ethoxy)-1H-pyrazol-1-yl]-12,12-dimethyl-2λ^6-thia-3,9,11,18,23-pentaazatetracyclo[17.3.1.111,14.05,10]tetracosa-1(22),5,7,9,19(23),20-hexaene-2,2,4-trione, 3 μM (R)-1-(2,2-difluorobenzo[d][1,3]dioxol-5-yl)-N-(1-(2,3-dihydroxypropyl)-6-fluoro-2-(1-hydroxy-2-methylpropan-2-yl)-1H-indol-5-yl)cyclopropanecarboxamide and 300 nM acute N-[2,4-bis(1,1-dimethylethyl)-5-hydroxyphenyl]-1,4-dihydro-4-oxoquinoline-3-carboxamide triple combination control (% Activity).

[1] = Table 10, read-out: Ent. B EC50

CFTR, sequence (P13569 with tags, fused parts or gaps DEL508-508): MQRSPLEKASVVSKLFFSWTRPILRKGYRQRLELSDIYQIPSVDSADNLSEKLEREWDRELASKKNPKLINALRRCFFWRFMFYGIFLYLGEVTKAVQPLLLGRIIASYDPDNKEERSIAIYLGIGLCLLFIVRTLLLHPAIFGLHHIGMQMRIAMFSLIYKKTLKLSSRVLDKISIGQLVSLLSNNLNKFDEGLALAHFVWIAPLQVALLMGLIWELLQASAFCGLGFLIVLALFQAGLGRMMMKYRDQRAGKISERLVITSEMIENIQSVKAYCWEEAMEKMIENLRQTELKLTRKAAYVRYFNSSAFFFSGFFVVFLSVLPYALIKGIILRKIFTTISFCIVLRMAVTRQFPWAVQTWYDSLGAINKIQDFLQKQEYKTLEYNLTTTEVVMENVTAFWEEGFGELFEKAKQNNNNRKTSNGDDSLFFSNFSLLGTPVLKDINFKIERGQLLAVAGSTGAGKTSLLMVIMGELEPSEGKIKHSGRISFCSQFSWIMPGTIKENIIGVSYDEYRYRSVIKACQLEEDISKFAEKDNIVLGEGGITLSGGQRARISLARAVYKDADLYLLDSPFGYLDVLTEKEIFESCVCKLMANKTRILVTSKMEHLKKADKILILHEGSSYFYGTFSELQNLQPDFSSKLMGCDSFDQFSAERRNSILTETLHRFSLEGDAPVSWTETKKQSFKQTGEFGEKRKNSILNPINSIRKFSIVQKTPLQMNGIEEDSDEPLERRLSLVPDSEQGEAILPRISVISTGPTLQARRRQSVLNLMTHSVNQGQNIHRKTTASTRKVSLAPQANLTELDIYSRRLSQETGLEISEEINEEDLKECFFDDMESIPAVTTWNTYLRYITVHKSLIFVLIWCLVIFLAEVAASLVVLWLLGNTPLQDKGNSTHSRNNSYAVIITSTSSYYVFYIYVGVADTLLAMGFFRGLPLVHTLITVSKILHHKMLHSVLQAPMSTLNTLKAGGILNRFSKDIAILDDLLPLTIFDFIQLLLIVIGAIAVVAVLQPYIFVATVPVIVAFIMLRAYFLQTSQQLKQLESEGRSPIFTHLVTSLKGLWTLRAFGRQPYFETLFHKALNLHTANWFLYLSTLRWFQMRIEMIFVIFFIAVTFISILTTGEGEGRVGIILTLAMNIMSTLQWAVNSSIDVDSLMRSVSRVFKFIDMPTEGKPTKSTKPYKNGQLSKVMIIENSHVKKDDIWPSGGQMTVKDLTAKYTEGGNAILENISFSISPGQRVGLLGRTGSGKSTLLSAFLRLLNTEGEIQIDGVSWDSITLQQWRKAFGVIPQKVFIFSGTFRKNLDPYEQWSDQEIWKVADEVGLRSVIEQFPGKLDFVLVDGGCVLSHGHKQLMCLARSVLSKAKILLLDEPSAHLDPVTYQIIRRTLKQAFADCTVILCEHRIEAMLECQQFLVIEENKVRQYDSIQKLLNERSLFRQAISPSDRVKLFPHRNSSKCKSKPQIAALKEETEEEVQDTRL

| Compound | Ent. B Max Activity (%) (Table 9) | EC50 (Table 9, read-out: Ent. B EC50) [nM] | further results |
| --- | --- | --- | --- |
| Cc1cccc(C)c1-c1cc2nc(n1)NS(=O)(=O)c1cccc(c1)C(=O)N([C@@H]1CC[C@@H]1C1CC1)[C@H](CC(C)(C)C)CO2 (racemic) [Compound 149, (11R)-12-(2-Cyclopropylcyclobutyl)-6-(2,6-dimethylphenyl)-11-(2,2-dimethylpropyl)-2,2-dioxo-9-oxa-2λ^6-thia-3,5,12,19-tetrazatricyclo[12.3.1.14,8]nonadeca-1(18),4(19),5,7,14,16-hexaen-13-one] |  |  | Ent. B Max Activity (%) (Table 10): +++ (+++ is >60%); EC50 [1]: < 1000 nM |
| [H][C@]1(N2C(=O)c3cccc(c3)S(=O)(=O)Nc3nc(cc(-c4c(C)cccc4C)n3)OC[C@H]2CCC(C)C)C[C@@]2(C[C@H](C(C)(C)O)C2)C1 (single isomer, unassigned) [Compound 4] |  |  | Ent. B Max Activity (%) (Table 10): +++ (+++ is >60%); EC50 [1]: < 1000 nM |
| [H][C@]1(N2C(=O)c3cccc(c3)S(=O)(=O)Nc3nc(cc(-c4c(C)cccc4C)n3)OC[C@H]2CCC(C)C)C[C@@]2(C[C@H](C(C)(C)O)C2)C1 (single isomer, unassigned) [Compound 5] |  |  | Ent. B Max Activity (%) (Table 10): +++ (+++ is >60%); EC50 [1]: < 1000 nM |
| Cc1cccc(C)c1-c1cc2nc(n1)NS(=O)(=O)c1cccc(c1)C(=O)N(C1CC3(C1)CC(C(C)(C)O)C3)[C@H](CCC(C)(C)C)CO2 (single isomer, unassigned) [Compound 8] |  |  | Ent. B Max Activity (%) (Table 10): +++ (+++ is >60%); EC50 [1]: < 1000 nM |
| Cc1cccc(C)c1-c1cc2nc(n1)NS(=O)(=O)c1cccc(c1)C(=O)N(C1CC3(C1)CC(C(C)(C)O)C3)[C@H](CCC(C)(C)C)CO2 (single isomer, unassigned) [Compound 9] |  |  | Ent. B Max Activity (%) (Table 10): +++ (+++ is >60%); EC50 [1]: < 1000 nM |
| Cc1cccc(C)c1-c1cc2nc(n1)NS(=O)(=O)c1cccc(c1)C(=O)N(C1CCN(C(=O)OC(C)C)C1)[C@H](CC(C)C)CO2 (single isomer, unassigned) [Compound 38] |  |  | Ent. B Max Activity (%): ++ (++ is 30-60%); EC50 (read-out: Ent. B EC50): < 1000 nM |
| Cc1cccc(C)c1-c1cc2nc(n1)NS(=O)(=O)c1cccc(c1)C(=O)N(C1CCN(C(=O)OC(C)C)C1)[C@H](CC(C)C)CO2 (single isomer, unassigned) [Compound 39] |  |  | Ent. B Max Activity (%): +++ (+++ is >60%); EC50 (read-out: Ent. B EC50): < 1000 nM |
| Cc1cccc(C)c1-c1cc2nc(n1)NS(=O)(=O)c1cccc(c1)C(=O)N([C@H]1C[C@@H](OC(C)C)C1)[C@H](CC(C)C)CO2 (single isomer, unassigned) [Compound 46] | +++ (+++ is >60%) | < 1000 |  |
| COC(=O)NC1CC(N2C(=O)c3cccc(c3)S(=O)(=O)Nc3nc(cc(-c4c(C)cccc4C)n3)OC[C@H]2CC2(C(F)(F)F)CC2)C1 (single isomer, unassigned) [Compound 53] | +++ (+++ is >60%) | < 1000 |  |
| Cc1cccc(C)c1-c1cc2nc(n1)NS(=O)(=O)c1cccc(c1)C(=O)N([C@H]1C[C@@H](NC(=O)OC(C)(C)C)C1)[C@H](CC1(C(F)(F)F)CC1)CO2 (single isomer, unassigned) [Compound 54] | +++ (+++ is >60%) | < 1000 |  |
| Cc1cccc(C)c1-c1cc2nc(n1)NS(=O)(=O)c1cccc(c1)C(=O)N([C@H]1C[C@@H](NC(=O)OC(C)(C)C)C1)[C@H](CC1(C(F)(F)F)CC1)CO2 (single isomer, unassigned) [Compound 55] | +++ (+++ is >60%) | < 1000 |  |
| COC(=O)NC1CC(N2C(=O)c3cccc(c3)S(=O)(=O)Nc3nc(cc(-c4c(C)cccc4C)n3)OC[C@H]2CC2(C(F)(F)F)CC2)C1 (single isomer, unassigned) [Compound 58] | +++ (+++ is >60%) | < 1000 |  |
| Cc1cccc(C)c1-c1cc2nc(n1)NS(=O)(=O)c1cccc(c1)C(=O)N(C1CC(NC(=O)OC(C)C)C1)[C@H](CC1(C(F)(F)F)CC1)CO2 (single isomer, unassigned) [Compound 59] | +++ (+++ is >60%) | < 1000 |  |
| Cc1cccc(C)c1-c1cc2nc(n1)NS(=O)(=O)c1cccc(c1)C(=O)N(C1CC(NC(=O)OC(C)C)C1)[C@H](CC1(C(F)(F)F)CC1)CO2 (single isomer, unassigned) [Compound 60] | +++ (+++ is >60%) | < 1000 |  |
| Cc1cccc(C)c1-c1cc2nc(n1)NS(=O)(=O)c1cccc(c1)C(=O)N(C1CC(N(C)C)C1)[C@H](CC1(C(F)(F)F)CC1)CO2 (single isomer, unassigned) [Compound 61] |  |  | Ent. B Max Activity (%) (Table 10): +++ (+++ is >60%); EC50 [1]: < 1000 nM |
| Cc1cccc(C)c1-c1cc2nc(n1)NS(=O)(=O)c1cccc(c1)C(=O)N([C@H]1C[C@@H](NC(=O)OC(C)C)C1)[C@H](CC(C)C)CO2 (single isomer, unassigned) [Compound 63] |  |  | Ent. B Max Activity (%): +++ (+++ is >60%); EC50 (read-out: Ent. B EC50): < 1000 nM |
| Cc1cccc(C)c1-c1cc2nc(n1)NS(=O)(=O)c1cccc(c1)C(=O)N([C@H]1C[C@@H](NC(=O)OC(C)C)C1)[C@H](CC(C)C)CO2 (single isomer, unassigned) [Compound 64] |  |  | Ent. B Max Activity (%): +++ (+++ is >60%); EC50 (read-out: Ent. B EC50): < 1000 nM |
| COC(=O)NC1(C)CC2(CC(N3C(=O)c4cccc(c4)S(=O)(=O)Nc4nc(cc(-c5c(C)cccc5C)n4)OC[C@H]3CC(C)(C)C)C2)C1 (single isomer, unassigned) [Compound 95] |  |  | Ent. B Max Activity (%) (Table 10): +++ (+++ is >60%); EC50 [1]: < 1000 nM |

Now from value to compound, other results behind:

| Ent. B Max Activity (%) (Table 9) | EC50 (Table 9, read-out: Ent. B EC50) [nM] | Compound | further results |
| --- | --- | --- | --- |
| +++ (+++ is >60%) | < 1000 | Cc1cccc(C)c1-c1cc2nc(n1)NS(=O)(=O)c1cccc(c1)C(=O)N([C@H]1C[C@@H](OC(C)C)C1)[C@H](CC(C)C)CO2 (single isomer, unassigned) [Compound 45] |  |
| +++ (+++ is >60%) | < 1000 | Cc1cccc(C)c1-c1cc2nc(n1)NS(=O)(=O)c1cccc(c1)C(=O)N([C@H]1C[C@@H](N)C1)[C@H](CC1(C(F)(F)F)CC1)CO2 (single isomer, unassigned) [Compound 56] |  |
| +++ (+++ is >60%) | < 1000 | Cc1cccc(C)c1-c1cc2nc(n1)NS(=O)(=O)c1cccc(c1)C(=O)N([C@H]1C[C@H](N)C1)[C@H](CC1(C(F)(F)F)CC1)CO2 (single isomer, unassigned) [Compound 57] |  |
| +++ (+++ is >60%) | < 1000 | COC(=O)NC1CC2(C1)CC(N1C(=O)c3cccc(c3)S(=O)(=O)Nc3nc(cc(-c4c(C)cccc4C)n3)OC[C@H]1CC(C)(C)C(F)(F)F)C2 (single isomer, unassigned) [Compound 75] |  |
| +++ (+++ is >60%) | < 1000 | COC(=O)NC1CC2(C1)CC(N1C(=O)c3cccc(c3)S(=O)(=O)Nc3nc(cc(-c4c(C)cccc4C)n3)OC[C@H]1CC(C)(C)C(F)(F)F)C2 (single isomer, unassigned) [Compound 76] |  |
| +++ (+++ is >60%) | < 1000 | COC(=O)NC1CC2(C1)CC(N1C(=O)c3cccc(c3)S(=O)(=O)Nc3nc(cc(-c4c(C)cccc4C)n3)OC[C@H]1CC(C)(C)C)C2 (single isomer, unassigned) [Compound 91] |  |
| +++ (+++ is >60%) | < 1000 | Cc1cccc(C)c1-c1cc2nc(n1)NS(=O)(=O)c1cccc(c1)C(=O)N(C1CC3(CC(NC(=O)OC(C)C)C3)C1)[C@H](CC(C)(C)C)CO2 (single isomer, unassigned) [Compound 93] |  |
